Values quoted from earlier work as cited in article PMC9326486, “The Therapeutic Potential of Targeting NIK in B Cell Malignancies” (Frontiers in Immunology, 2022).
Read-outs that look alike come from different tables or passages of the source.

How the values were obtained:
[1] = test system: p52 nuclear translocation; settings: in vitro treatment, MCL and context of inflammation; ref [72], [73]
[2] = design: method as in PMID 24980832; settings: prevented further in vivo studies; ref [71]
[3] = test system: L363, KMS11 and JMW1 cell lines Z138 and MAVER-1 cell lines U-2 OS cell line; design: method as in earlier work; settings: Multiple myeloma (L363, KMS11, JMW1), mantle cell lymphoma (Z138, MAVER-1), osteosarcoma (U-2 OS) cell lines; ref [71] [72] [73]
[4] = test system: non-canonical NF-κB signaling; design: method as in PMID 24980832; settings: ref [71]
NF-κB gene reporter = test system: NF-κB gene reporter; design: method as in PMID 30108985; settings: ref [75]
EJM cell line = test system: EJM cell line; design: method as in PMID 30108985; settings: Multiple myeloma, ref [75]
WT mice on ethanol diet = test system: WT mice on ethanol diet; design: method as in PMID 32206109; settings: alcoholic liver disease, ref [82]
mouse stem cells = test system: mouse stem cells; design: method as in doi:10.1101/2021.08.26.457753; settings: in vitro, ref [86]
[5] = design: method as in PMID 27871061, PMID 32730745; settings: ref [80], [81]
p100-to-p52 processing = test system: p100-to-p52 processing; design: method as in PMID 27871061; settings: ref [80]
[6] = test system: liver-specific NIK overexpression mouse model; design: method as in PMID 27871061; settings: intravenous administration, ref [80]
CLL cells = test system: CLL cells; design: method as in PMID 33495554; settings: ref [77]
[7] = test system: Chronic lymphocytic leukemia Primary cells; design: method as in PMID 33495554; settings: ref [77]
primary CLL cells = test system: primary CLL cells; design: method as in PMID 33495554; settings: ref [77]
NIK = test system: NIK; design: method as in PMID 29940120; settings: Table 2, inhibitors applied in vivo; WT mice; ref [85]
HEK293 cell line = test system: HEK293 cell line; design: method as in PMID 28005357; settings: ref [74]
HT-29 cell line = test system: HT-29 cell line; design: method as in PMID 23374866; settings: Colorectal adenocarcinoma, ref [70]
SW1990 cell line = test system: SW1990 cell line; design: method as in PMID 31116887; settings: Pancreatic cancer, ref [76]
NZB/W F1 lupus mice = test system: NZB/W F1 lupus mice; design: method as in PMID 29330524; settings: systemic lupus erythematosus mouse model; ref [83]
WT mice = test system: WT mice; design: method as in PMID 29330524; settings: ref [83]
[8] = test system: intrahepatic cholangiocarcinoma xenografts; design: method as in PMID 34995376; settings: ref [84]
RelA activity = test system: RelA activity; design: method as in PMID 29330524; settings: selectivity for non-canonical NF-κB signaling; ref [83]
[9] = higher concentrations (above 0.25µM)

Structure (SMILES): Nc1ncc(Cl)c(N2CCc3ccc(C#CC4(O)CCCC4)cc32)n1 [Amgen16]
- p52 nuclear translocation [1]: Inhibition of p52 nuclear translocation
- pharmacokinetic properties [2]: poor
- IC50 [3]: 417 to 2520 nM
- effect on non-canonical NF-κB signaling ([4]; MM cell lines with mutations activating non-canonical NF-κB signaling independent of NIK): not affected
- effect on non-canonical NF-κB signaling ([4]; NIK-dependent MM cell lines): inhibition of non-canonical NF-κB signaling

Structure (SMILES): CC(=O)n1nc(C)c(-c2ccc(Cl)c(Cl)c2)c1N [Aminopyrazole 3a]
- NF-κB gene reporter assay readout (NF-κB gene reporter; NIK-dependent MM cell line): efficacy
- NF-κB gene reporter assay readout (NF-κB gene reporter; two NIK-independent MM cell lines): no significant inhibition
- IC50 (EJM cell line): 7100 to 9700 nM

Structure (SMILES): CC(O)(C#Cc1ccc2c(c1)N(c1nc(N)ncc1Cl)CC2)c1nccs1 (centres unmarked) [B022]
- alcoholic steatosis (WT mice on ethanol diet): alleviated alcoholic steatosis
- adipogenesis (mouse stem cells): prevented adipogenesis
- cytoplasmic RelA phosphorylation levels (mouse stem cells): reduce
- non-canonical NF-κB signaling (mouse stem cells): inhibited
- in vivo pharmacokinetic properties [5]: bad
- p100-to-p52 processing (p100-to-p52 processing): inhibition
- death as a result of liver inflammation and injury [6]: completely abrogated death

Structure (SMILES): CC(C)(O)C#Cc1ccc2c(c1)N(c1ccnc(N)n1)CC2 [CW15337]
- CD40-mediated drug resistance (CLL cells): abrogated
- IC50 [7]: 500 to 1000 nM
- cell viability (primary CLL cells; concentrations up to 0.25µM): without an effect
- canonical NF-κB signaling (primary CLL cells; [9]): partial inhibition
- non-canonical NF-κB signaling (primary CLL cells; [9]): full blockade
- concentrations resulting in specific non-canonical NF-κB inhibition (primary CLL cells): up to 0.25 µM

Structure (SMILES): Cc1cc([C@](C)(O)C#Cc2cc3c(cc2F)OCCn2cc(C(N)=O)nc2-3)no1 [Compound 10]
- IC50 (HEK293 cell line): 123 to 189 nM

Structure (SMILES): Cc1nc2ccc(Cl)cn2c1-c1ccnc(N)n1 [Imidazopyridinyl pyrimidinamine 1]
- IC50 (HT-29 cell line): 16000 nM

Structure (SMILES): O=C(NC1=CC2OC(c3cccc(NC(=O)c4ccccc4)c3)=NC2C=C1)c1ccccc1 (centres unmarked) [N-(3-(6-benzamido-3a,7a-dihydrobenzo[d]oxazol-2-yl)-phenyl)benzamide]
- IC50 (SW1990 cell line): 42000 to 55800 nM

Structure (SMILES): COc1cc(C(N)=O)nc(-c2cccc(C#C[C@]3(O)CCN(C)C3=O)c2)c1 [NIK SMI1]
- germinal center B cell and plasma cell differentiation (NZB/W F1 lupus mice): inhibited
- mortality (NZB/W F1 lupus mice): significantly reduced
- IC50 (primary B cells; Table 2, inhibitors applied in vivo, ref [83] [84]): 109 to 269 nM
- in vitro IC50 value (primary B cells; primary B cells, ref [83]): nanomolar range
- B cell survival (WT mice; WT mice, dose-dependent): reduction of marginal zone and follicular B cells
- serum IgA levels (WT mice; WT mice): reduced
- tolerance (weight loss, blood test results) ([8]; mouse intrahepatic cholangiocarcinoma xenografts): good tolerance
- RelA activity (RelA activity): not affected
